Earlier results in US12504433B2, “Methods, systems and kits for in-pen assays” (BRUKER CELLULAR ANALYSIS, INC., priority 2020, dated 2025).

Experiments:
Fc of hIgG = conditions: read-out: Affinity for IgG

For “5′-rGp-rGp-rAp-rGp-rGp-fUp-fCp-fCp-rGp-rAp-rAp-rAp-rGp-rGp-rAp-fCp-fUp-fCp-fCp-3′ [CPD 5]”, the Kd (Fc of hIgG) is given as 0.075 µM.

In the case of “CPD 1: Protein A-AF594, Pierce Recombinant Protein A (ThermoFisher Cat. # 77674)”, the “Affinity for IgG” value (IgG; stated in words) is given as “nanomolar”.

In the case of “DCAWHLGELVWCT [CPD 4, Asp Cys Ala Trp His Leu Gly Glu Leu Val Trp Cys Thr]”, the Kd (IgG; Fc, read-out: Affinity for IgG) is listed as 0.1 µM.
